Measured values as given in patent US20240391887A1, “New VASHs inhibitors, conjugates thereof and their uses as drugs or as research tools” (Centre National de Recherche Scientifique (CNRS), priority 2021, published 2024).
“Also recorded” adds a separate entry of the source. Where two headings read alike, the source gives them in different places. One block for each compound: values may come before it.

How the values were obtained:
VASH2 = VASH2 (Homo sapiens, UniProt Q86V25); experiment: In vitro detyrosination assay, VASH2-mediated (immunoblot); assay type: biochemical; conditions: concentration not given
carboxypeptidase A (CPA) = molecular target: T1, carboxypeptidase A (CPA) (Bos taurus, UniProt P00730); experiment: Carboxypeptidase A-dependent tubulin detyrosination in vitro; assay type: biochemical; conditions: concentration not given
T1 sequence (P00730 111-419): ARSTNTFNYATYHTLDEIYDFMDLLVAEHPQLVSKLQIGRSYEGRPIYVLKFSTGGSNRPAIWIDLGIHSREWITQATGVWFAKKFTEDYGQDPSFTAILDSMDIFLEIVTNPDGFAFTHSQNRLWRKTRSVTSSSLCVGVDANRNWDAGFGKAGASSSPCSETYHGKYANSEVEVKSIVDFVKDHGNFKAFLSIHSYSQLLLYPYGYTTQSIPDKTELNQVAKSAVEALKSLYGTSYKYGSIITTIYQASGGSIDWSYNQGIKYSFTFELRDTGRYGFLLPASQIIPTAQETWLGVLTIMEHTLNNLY

VASH1 [1] = molecular target: T2, VASH1 (Homo sapiens, UniProt Q7L8A9); experiment: In vitro detyrosination assay using recombinant VASH1 (immunoblot); conditions: concentration not given
VASHs = conditions: background statement; read-out: IC50 in cellulo; cited from earlier work
[2] = test system: VASH-mediated tubulin detyrosination in human CHL-1 cells; experiment: In cellulo taxol-induced tubulin detyrosination assay in CHL-1 cells
VASH1 [3] = molecular target: T2, VASH1; experiment: Standardized in vitro detyrosination ELISA based assay; assay type: biochemical; design: poly-histidine tag; made in house; host or cells: bacteria (IPTG induction); conditions: for in vitro VASH inhibition activity / in vitro activity compared with reference compounds: in vitro detyrosination assay; for Fold change/ LV-80: ratio IC50(compound)/IC50(LV80)
Description: Standardized primary ELISA-based in vitro detyrosination assay in a 96-wells format has been developed according to the method disclosed in WO2020/012002. […] Primary (rabbit anti-detyrosinated tubulin) is incubated for 1 hour and after washes, secondary (anti-rabbit) antibody is added to each well. The plate is incubated 1 h at room temperature. Development consists of addition of TMB (3,3′,5,5′-Tetramethylbenzidine) to each well, incubation 30 minute at room temperature. The colour development is stopped by addition of 0.5 M sulfuric acid. OD is measured at 450 nm.
The in vitro inhibition activity of IBMT11 is tested by adding the compound to the reaction medium as described above (see part 2.2) and then detyrosination was analysed by immunoblotting with the indicated antibodies.

[4] = Solubility in water or PBS solution; assay type: physicochemical; conditions: compared with the corresponding base LV-80
CHL-1 cells [5] = experiment: LC/MS bioanalysis of penetration and conversion in human cells; assay type: in vitro ADME; conditions: 25 uM, 1 hour
Description: CHL-1 cells have been treated with 25 uM of LV-104 for 1 hour. Culture supernatant have been collected immediately (initial) and 1 hour (supernatant) after compound addition. Cells have been washed, lysed and processed for LC/MS reading (Cells) to detect LV-104 and its bio converted form IBMT11.
Peptide stability in serum Human serum reaction sample contained 250 μl of heat inactivated Human Serum (Sigma Aldrich) and 750 μL of RPMI Medium 1640 (Sigma Aldrich). The reactions were initiated by addition of 50 μl compound (in mM stock solution in DMSO). Assays were performed in a shaking water bath at 37° C. 100 μl samples were collected at known time intervals and added to 200 μl of acetonitrile 1% % TFA to precipitate serum proteins. Cloudy sample was cooled to 4° C. for 15 min and then submitted to centrifugation for 10 min at 12,000 rpm to pellet the precipitated serum proteins. 150 μl of the clear supernatants were collected and peptides were finally analyzed by RPHPLC and LC-MS.
The bioanalysis of the penetration and the conversion of the compound LV-104 has been achieved using the above described protocol on human cells (see part 2.2). The results are illustrated on FIG. 14.

CHL-1 cells [6] = experiment: MTT-based colorimetric cell viability assay; design: species or system human; conditions: 0.1 μM, 24 hours
Description: We next choose a widely used MTT-based colorimetric assay to assess the potential metabolic toxicity and cell viability alterations in the presence of LV-80. […]

[7] = calculated in vitro IC50, read-out: IC50
[8] = read-out: IC50 on cells, compounds added prior Taxol-treatment, FIG. 12

Chain of VASH2 (Q86V25 whole entry, species assumed): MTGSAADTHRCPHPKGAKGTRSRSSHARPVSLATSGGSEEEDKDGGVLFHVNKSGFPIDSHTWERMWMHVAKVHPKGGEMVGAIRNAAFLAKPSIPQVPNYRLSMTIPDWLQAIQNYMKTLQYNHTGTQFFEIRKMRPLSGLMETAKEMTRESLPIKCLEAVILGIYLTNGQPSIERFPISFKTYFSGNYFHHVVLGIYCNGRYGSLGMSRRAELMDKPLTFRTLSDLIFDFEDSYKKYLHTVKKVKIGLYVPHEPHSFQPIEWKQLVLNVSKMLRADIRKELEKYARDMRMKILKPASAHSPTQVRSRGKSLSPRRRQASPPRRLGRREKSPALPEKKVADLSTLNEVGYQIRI
T2 sequence (Q7L8A9 whole entry): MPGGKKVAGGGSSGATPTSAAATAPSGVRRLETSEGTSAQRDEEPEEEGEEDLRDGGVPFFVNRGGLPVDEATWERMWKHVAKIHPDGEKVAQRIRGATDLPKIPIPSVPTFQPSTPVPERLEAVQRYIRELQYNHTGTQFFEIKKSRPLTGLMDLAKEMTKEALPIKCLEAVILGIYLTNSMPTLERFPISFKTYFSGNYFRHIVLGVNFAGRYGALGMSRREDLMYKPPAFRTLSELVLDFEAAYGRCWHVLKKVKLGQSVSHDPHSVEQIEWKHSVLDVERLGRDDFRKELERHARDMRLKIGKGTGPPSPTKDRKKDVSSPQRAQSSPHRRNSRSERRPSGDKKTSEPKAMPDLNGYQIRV
T2 sequence (Q8N300 whole entry partner): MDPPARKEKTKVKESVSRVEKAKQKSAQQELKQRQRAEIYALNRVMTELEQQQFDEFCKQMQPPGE

SMILES: O=C(O)CC(Cc1ccccc1)C(=O)O (stereo not drawn) [BzISA, benzylsuccinic acid, reference compound]
effect on VASH2-mediated detyrosination in vitro (VASH2): did not affect
effect on CPA-dependent detyrosination (carboxypeptidase A (CPA)): completely abolished
effect on VASH1-mediated detyrosination in vitro (VASH1 [1]): did not affect

SMILES: CCOC(=O)[C@H]1O[C@@H]1C(=O)N[C@@H](Cc1ccc(O)cc1)C(=O)O [Epo-Y, reference compound]
IC50 (VASHs): ~15000 nM
IC50 ([2]; read-out: IC50 in cellulo, taxol-induced detyrosination assay, FIG. 4F): 3000 nM
effect on tubulin acetylation ([2]; taxol treated CHL-1 cells): without affecting
inhibition of tubulin detyrosination in cellulo ([2]; taxol treated CHL-1 cells): dose-dependently inhibited; also recorded: reduced tubulin detyrosination in a dose-dependent manner

SMILES: O=C(O)CCC[C@@H](NC(=O)[C@H]1O[C@@H]1C(=O)N[C@@H](Cc1ccc(OCc2ccccc2)cc1)C(=O)O)C(=O)NCCc1ccccc1 [IBMT-29 hydro]
IC50 (VASH1 [3]; [7]): 300 nM
Fold change/ LV-80 (VASH1 [3]): 1

SMILES: CC(C)(C)ONC(=O)CCC[C@@H](NC(=O)[C@H]1O[C@@H]1C(=O)N[C@@H](Cc1ccc(OCc2ccccc2)cc1)C(=O)O)C(=O)NCCc1ccccc1 [IBMT-31 hydro]
IC50 (VASH1 [3]; [7]): 3900 nM
Fold change/ LV-80 (VASH1 [3]): 13

SMILES: NC(=O)C(CCCC(=O)O)NC(=O)C1OC1C(=O)NC(Cc1ccc(O)cc1)C(=O)O (stereo not drawn) [LV-43]
in cellulo activity compared with reference compounds ([2]; taxol treated CHL-1 cells): much less efficient than Epo-Y

SMILES: O=C(O)[C@H](Cc1ccc(O)cc1)NC(=O)[C@H]1O[C@@H]1C(=O)N[C@@H](Cc1ccc(O)cc1)C(=O)O [LV-59]
IC50 (VASH1 [3]; [7]): 1200 nM
Fold change/ LV-80 (VASH1 [3]): 4

SMILES: CCOC(=O)[C@H](Cc1ccc(OCC)cc1)NC(=O)[C@H]1O[C@@H]1C(=O)N[C@@H](Cc1ccc(OCC)cc1)C(=O)OCC [LV-104]
in vitro VASH inhibition activity (VASH1 [3]): did not inhibit
effect on VASH2-mediated detyrosination in vitro (VASH2): did not have any effect
IC50 [2, 8]: 8 nM
inhibition of tubulin detyrosination in cellulo ([2]; taxol treated CHL-1 cells): very efficient inhibition
conversion of prodrug into IBMT11 inside human cells (CHL-1 cells [5]): total conversion
detection of parent compound inside cells (CHL-1 cells [5]): undetectable
effect on VASH1-mediated detyrosination in vitro (VASH1 [1]): did not have any effect

SMILES: CCOC(=O)[C@H](Cc1ccc(OCC)cc1)NC(=O)[C@H]1O[C@@H]1C(=O)OCC [LV-111]
effect on VASH2-mediated detyrosination in vitro (VASH2): did not have any effect
IC50 [2, 8]: 20 nM
effect on VASH1-mediated detyrosination in vitro (VASH1 [1]): did not have any effect

SMILES: O=C(O)C(Cc1ccc(O)cc1)NC(=O)C1OC1C(=O)O (stereo not drawn) [SD-139sapo, reference compound]
in vitro activity compared with reference compounds (VASH1 [3]): very less potent than LV-80

SMILES: O=C(O)[C@H](Cc1ccc(OCc2ccccc2)cc1)NC(=O)[C@H]1O[C@@H]1C(=O)N[C@@H](Cc1ccc(OCc2ccccc2)cc1)C(=O)O [Synthé Mix hydro]
IC50 (VASH1 [3]; [7]): 600 nM
Fold change/ LV-80 (VASH1 [3]): 2

SMILES: CC(=O)O[C@H]1C(=O)[C@@]2(C)[C@H]([C@H](OC(=O)c3ccccc3)[C@]3(O)C[C@H](OC(=O)[C@H](O)[C@@H](NC(=O)c4ccccc4)c4ccccc4)C(C)=C1C3(C)C)[C@]1(OC(C)=O)CO[C@@H]1C[C@@H]2O [taxol, paclitaxel]
cell viability (CHL-1 cells [6]): significant reduction

The next lines start with results.

in vitro VASH inhibition activity (VASH1 [3]): inactive
SMILES: CCOC(=O)CCCCNC(=O)[C@H]1O[C@@H]1C(=O)N[C@@H](Cc1ccc(OCC)cc1)C(=O)OCC [IBMT23]
in cellulo activity compared with reference compounds ([2]; taxol treated CHL-1 cells): more potent on cultured cells than LV80; also recorded: as potent in vivo as LV80
inhibition of tubulin detyrosination in cellulo ([2]; taxol treated CHL-1 cells): excellent

IC50 (VASH1 [3]; VASH1-mediated tubulin detyrosination, FIG. 13.A, read-out: in vitro IC50): 600 nM
in vitro activity compared with reference compounds (VASH1 [3]): more potently than Epo-Y
Fold change/ LV-80 (VASH1 [3]): 2
SMILES: CCOc1ccc(C[C@H](NC(=O)[C@H]2O[C@@H]2C(=O)N[C@H](Cc2ccc(OCC)cc2)C(=O)O)C(=O)O)cc1 [IBMT-11]
inhibition of tubulin detyrosination in cellulo ([2]; taxol treated CHL-1 cells): weak inhibition activity

IC50 (VASH1 [3]; [7]): 3900 nM
Fold change/ LV-80 (VASH1 [3]): 13
SMILES: CCOc1ccc(C[C@H](NC(=O)[C@H]2O[C@@H]2C(=O)NCCCCC(=O)O)C(=O)O)cc1 [IBMT-26]

IC50 (VASH1 [3]; [7]): 4200 nM
Fold change/ LV-80 (VASH1 [3]): 14
SMILES: CCOC(=O)[C@H](Cc1ccc(OCc2ccccc2)cc1)NC(=O)[C@H]1O[C@@H]1C(=O)N[C@H](CCCC(=O)O)C(=O)NCCc1ccccc1 [IBMT-29]

IC50 (VASH1 [3]; [7]): 300 nM
in vitro activity compared with reference compounds (VASH1 [3]): same activity
Fold change/ LV-80 (VASH1 [3]): 1
solubility in water or PBS solution [4]: dramatically increased
SMILES: O=C([O-])CCC[C@H](NC(=O)[C@H]1O[C@@H]1C(=O)N[C@@H](Cc1ccc(OCc2ccccc2)cc1)C(=O)[O-])C(=O)NCCc1ccccc1.[Na+].[Na+] [IBMT-34]
in cellulo activity compared with reference compounds ([2]; taxol treated CHL-1 cells): same activity

in vitro activity compared with reference compounds (VASH1 [3]): very less potent than LV-80
SMILES: CCOC(=O)C1OC1C(=O)NC(Cc1ccc(O)cc1)C(=O)OC(C)(C)C (stereo not drawn) [SD-139, reference compound]
